Measured values published in ChEMBL document CHEMBL5465560, “Selectivity Literature for EUbOPEN Chemogenomic Library” (2024).

What was measured:
[1] = molecular target: T1, Dual specificity mitogen-activated protein kinase kinase 3 (Homo sapiens) (UniProt P46734); experiment: Selectivity interaction (Kinase panel (KiNativ target engagement assay in Jurkat cells)) EUB0001635a MAP2K3; assay type: cell-based; settings: at 1 µM
T1 sequence (whole entry): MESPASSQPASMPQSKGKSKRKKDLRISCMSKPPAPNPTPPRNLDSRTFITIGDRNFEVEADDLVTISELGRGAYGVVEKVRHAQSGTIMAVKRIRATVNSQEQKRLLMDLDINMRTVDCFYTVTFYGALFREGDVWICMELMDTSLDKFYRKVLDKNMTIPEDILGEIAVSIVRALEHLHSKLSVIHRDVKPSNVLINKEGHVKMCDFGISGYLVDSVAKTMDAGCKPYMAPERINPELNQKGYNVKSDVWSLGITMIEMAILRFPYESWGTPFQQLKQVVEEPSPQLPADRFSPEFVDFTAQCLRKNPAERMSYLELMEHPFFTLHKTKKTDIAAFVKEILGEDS

[2] = molecular target: High affinity nerve growth factor receptor (Homo sapiens, UniProt P04629); experiment: Selectivity interaction (KinomeScan (DiscoverX)) EUB0000595a NTRK1; settings: at 10 µM
Chain of High affinity nerve growth factor receptor (P04629 33-796 limits assumed): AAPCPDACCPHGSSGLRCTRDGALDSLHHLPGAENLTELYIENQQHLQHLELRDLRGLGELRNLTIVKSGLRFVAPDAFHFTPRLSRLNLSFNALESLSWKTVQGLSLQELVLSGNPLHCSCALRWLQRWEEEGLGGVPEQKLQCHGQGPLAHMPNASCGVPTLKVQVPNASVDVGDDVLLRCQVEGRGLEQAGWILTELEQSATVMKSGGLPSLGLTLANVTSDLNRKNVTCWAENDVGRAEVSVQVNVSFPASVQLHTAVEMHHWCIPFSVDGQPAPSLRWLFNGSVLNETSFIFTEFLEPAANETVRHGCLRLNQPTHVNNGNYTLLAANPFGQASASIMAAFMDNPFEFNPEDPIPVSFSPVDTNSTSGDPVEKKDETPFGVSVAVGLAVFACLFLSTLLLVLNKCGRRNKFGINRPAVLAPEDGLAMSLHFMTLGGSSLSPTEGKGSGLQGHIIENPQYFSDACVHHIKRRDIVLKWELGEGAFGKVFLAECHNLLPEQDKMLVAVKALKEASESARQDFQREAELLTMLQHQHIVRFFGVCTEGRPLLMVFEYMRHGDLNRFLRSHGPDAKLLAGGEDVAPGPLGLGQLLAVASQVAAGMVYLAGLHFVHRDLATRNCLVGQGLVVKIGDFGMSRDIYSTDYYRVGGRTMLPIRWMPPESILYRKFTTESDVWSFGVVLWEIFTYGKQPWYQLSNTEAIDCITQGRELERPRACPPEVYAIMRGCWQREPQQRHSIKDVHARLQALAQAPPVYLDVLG

[3] = molecular target: Insulin-like growth factor 1 receptor (Homo sapiens, UniProt P08069); experiment: Selectivity interaction (KinomeScan (DiscoverX)) EUB0000045b IGF1R
Chain of Insulin-like growth factor 1 receptor (P08069 31-736 limits assumed): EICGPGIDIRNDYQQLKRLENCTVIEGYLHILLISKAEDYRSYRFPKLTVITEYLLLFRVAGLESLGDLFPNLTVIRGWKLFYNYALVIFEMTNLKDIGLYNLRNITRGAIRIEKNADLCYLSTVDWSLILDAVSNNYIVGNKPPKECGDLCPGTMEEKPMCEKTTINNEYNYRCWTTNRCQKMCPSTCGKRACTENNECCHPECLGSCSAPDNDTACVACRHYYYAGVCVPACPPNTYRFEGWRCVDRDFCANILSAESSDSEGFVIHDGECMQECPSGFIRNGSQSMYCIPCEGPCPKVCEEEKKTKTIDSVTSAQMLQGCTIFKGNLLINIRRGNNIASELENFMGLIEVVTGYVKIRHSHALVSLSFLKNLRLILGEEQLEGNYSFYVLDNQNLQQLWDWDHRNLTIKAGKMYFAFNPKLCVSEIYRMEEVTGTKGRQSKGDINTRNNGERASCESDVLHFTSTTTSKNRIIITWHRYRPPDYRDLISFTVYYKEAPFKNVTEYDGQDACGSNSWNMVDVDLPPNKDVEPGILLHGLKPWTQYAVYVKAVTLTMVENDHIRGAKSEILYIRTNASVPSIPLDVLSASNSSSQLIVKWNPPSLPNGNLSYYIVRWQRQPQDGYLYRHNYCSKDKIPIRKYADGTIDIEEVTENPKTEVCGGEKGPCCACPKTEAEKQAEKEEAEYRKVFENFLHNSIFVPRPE
Chain of Insulin-like growth factor 1 receptor (P08069 741-1367 limits assumed): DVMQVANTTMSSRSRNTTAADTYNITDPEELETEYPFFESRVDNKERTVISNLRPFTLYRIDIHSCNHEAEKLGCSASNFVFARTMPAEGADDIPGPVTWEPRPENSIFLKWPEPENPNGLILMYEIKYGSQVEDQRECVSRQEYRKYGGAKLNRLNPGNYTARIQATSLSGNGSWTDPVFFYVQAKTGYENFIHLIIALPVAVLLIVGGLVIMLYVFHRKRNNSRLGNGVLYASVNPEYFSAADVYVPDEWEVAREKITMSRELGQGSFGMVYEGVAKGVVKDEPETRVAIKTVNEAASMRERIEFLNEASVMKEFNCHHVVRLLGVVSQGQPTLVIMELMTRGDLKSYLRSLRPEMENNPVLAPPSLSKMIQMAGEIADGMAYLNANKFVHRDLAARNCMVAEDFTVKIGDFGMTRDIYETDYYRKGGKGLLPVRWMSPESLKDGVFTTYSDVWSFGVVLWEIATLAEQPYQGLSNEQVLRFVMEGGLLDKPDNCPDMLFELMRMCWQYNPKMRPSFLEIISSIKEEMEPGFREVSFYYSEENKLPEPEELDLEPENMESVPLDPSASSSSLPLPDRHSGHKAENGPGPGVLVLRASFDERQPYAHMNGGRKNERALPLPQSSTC

[4] = molecular target: T2, Tyrosine-protein kinase receptor TYRO3 (Homo sapiens) (UniProt Q06418); experiment: Selectivity interaction (Kinase panel (Z-LYTE Assay)) EUB0001632a TYRO3; settings: at 10 µM
T2 sequence (whole entry): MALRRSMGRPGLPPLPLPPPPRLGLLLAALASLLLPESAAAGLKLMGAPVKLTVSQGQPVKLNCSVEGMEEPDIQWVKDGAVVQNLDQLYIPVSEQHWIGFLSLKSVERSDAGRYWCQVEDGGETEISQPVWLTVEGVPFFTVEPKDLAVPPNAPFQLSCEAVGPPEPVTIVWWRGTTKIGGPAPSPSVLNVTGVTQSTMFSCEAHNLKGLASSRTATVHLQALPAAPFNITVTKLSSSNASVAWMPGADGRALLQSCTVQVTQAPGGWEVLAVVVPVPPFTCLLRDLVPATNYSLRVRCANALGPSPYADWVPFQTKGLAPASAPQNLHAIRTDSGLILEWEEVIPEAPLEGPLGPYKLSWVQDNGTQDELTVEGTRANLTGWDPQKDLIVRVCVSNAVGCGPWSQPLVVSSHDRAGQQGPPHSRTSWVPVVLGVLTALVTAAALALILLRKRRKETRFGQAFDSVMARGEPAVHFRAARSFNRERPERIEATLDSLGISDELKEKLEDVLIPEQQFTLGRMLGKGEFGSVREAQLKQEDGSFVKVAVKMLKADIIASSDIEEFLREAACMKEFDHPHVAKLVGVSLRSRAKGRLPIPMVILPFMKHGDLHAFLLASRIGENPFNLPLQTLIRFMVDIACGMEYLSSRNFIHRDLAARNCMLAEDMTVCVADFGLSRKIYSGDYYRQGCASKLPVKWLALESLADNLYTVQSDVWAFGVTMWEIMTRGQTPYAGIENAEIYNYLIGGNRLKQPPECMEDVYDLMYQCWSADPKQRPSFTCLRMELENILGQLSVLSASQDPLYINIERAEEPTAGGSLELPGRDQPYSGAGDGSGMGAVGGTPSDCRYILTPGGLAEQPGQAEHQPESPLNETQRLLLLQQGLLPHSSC

[5] = molecular target: T3, Serine/threonine-protein kinase TBK1 (Homo sapiens) (UniProt Q9UHD2); settings: at 10 µM
T3 sequence (whole entry): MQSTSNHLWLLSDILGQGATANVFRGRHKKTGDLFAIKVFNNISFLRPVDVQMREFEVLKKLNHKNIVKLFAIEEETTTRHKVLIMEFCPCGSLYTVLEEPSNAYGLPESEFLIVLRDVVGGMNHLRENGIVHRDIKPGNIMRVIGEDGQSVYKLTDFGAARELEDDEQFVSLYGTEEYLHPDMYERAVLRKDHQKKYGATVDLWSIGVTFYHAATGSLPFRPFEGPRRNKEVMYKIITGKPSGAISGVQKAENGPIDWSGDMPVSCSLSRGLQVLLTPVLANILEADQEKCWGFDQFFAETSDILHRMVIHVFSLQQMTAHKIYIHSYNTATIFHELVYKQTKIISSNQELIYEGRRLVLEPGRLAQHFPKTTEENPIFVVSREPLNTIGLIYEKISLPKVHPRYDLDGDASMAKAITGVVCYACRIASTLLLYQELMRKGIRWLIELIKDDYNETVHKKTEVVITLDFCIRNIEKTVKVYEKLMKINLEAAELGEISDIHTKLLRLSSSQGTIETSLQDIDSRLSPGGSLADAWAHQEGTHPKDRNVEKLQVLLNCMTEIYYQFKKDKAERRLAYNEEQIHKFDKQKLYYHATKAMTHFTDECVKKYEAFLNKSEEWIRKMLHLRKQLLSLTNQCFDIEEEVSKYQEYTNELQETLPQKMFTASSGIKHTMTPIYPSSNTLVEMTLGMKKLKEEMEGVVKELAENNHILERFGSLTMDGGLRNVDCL

[6] = molecular target: T4, Serine/threonine-protein kinase 17B (Homo sapiens) (UniProt O94768); experiment: Selectivity interaction (KinomeScan (DiscoverX)) EUB0001049a STK17B; settings: at 1 µM
T4 sequence (whole entry): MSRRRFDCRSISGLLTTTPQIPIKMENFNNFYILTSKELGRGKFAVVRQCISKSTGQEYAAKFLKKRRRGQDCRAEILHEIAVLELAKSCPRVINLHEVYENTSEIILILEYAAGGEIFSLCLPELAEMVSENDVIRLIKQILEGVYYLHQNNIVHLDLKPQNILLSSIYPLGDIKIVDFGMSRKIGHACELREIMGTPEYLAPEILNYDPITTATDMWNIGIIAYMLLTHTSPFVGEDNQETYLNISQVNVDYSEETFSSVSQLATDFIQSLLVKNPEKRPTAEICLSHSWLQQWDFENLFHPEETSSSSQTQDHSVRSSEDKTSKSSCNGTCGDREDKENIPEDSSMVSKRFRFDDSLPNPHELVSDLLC

[7] = molecular target: Tyrosine-protein kinase ABL2 (Homo sapiens, UniProt P42684); experiment: Selectivity interaction (Millipore kinase profiler) EUB0000124b ABL2; settings: at 10 µM
Chain of Tyrosine-protein kinase ABL2 (P42684 whole entry): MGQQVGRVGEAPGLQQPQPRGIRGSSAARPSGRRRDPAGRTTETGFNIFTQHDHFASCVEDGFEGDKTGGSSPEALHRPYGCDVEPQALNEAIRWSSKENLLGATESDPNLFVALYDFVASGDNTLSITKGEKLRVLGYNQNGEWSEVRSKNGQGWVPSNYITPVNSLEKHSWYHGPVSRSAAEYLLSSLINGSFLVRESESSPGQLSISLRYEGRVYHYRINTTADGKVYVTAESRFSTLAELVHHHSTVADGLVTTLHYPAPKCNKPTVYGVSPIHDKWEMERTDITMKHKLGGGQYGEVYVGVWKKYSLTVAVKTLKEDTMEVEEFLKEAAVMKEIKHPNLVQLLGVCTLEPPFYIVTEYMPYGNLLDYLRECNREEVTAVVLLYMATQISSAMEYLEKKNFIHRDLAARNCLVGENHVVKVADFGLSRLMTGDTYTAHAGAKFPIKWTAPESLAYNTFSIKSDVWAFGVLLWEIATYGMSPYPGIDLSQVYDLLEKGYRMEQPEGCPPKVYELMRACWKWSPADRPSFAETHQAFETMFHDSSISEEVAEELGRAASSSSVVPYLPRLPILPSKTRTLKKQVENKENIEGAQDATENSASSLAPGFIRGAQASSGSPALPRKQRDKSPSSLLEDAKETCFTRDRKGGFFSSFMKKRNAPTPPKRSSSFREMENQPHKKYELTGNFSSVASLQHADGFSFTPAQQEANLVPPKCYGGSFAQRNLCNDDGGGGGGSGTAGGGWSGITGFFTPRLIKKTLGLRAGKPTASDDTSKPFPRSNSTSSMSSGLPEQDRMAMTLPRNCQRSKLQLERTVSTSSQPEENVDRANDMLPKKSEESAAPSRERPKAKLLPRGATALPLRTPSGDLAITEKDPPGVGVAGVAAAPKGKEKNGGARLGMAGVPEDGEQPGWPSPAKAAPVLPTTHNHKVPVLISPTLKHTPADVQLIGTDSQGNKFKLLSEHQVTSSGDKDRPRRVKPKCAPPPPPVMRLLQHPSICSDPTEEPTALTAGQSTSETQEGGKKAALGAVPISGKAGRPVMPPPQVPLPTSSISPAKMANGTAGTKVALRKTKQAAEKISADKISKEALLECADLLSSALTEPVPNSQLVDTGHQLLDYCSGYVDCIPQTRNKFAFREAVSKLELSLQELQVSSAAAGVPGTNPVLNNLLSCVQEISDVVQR

[8] = molecular target: Calcium/calmodulin-dependent protein kinase type II subunit alpha (Homo sapiens, UniProt Q9UQM7); experiment: Selectivity interaction (Upstate Kinase Profiler service (Millipore, enzymatic assay)) EUB0000056c CAMK2A
Chain of Calcium/calmodulin-dependent protein kinase type II subunit alpha (Q9UQM7 whole entry): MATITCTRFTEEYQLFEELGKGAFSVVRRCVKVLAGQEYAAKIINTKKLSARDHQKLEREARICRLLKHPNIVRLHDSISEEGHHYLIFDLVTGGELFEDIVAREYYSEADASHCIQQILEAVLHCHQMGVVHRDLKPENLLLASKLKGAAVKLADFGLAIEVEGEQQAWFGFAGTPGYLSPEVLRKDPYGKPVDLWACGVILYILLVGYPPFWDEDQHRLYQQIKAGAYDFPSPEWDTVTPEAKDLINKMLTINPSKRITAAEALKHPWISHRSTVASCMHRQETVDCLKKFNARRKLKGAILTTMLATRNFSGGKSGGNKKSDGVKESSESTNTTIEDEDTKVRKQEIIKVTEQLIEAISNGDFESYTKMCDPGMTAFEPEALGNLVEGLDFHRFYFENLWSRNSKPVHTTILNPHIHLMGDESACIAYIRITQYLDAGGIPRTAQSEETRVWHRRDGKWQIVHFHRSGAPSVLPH

[9] = molecular target: Serine/threonine-protein kinase NIM1 (Homo sapiens, UniProt Q8IY84); experiment: Selectivity interaction (KinomeScan (DiscoverX)) EUB0000618a NIM1K; settings: at 10 µM
Chain of Serine/threonine-protein kinase NIM1 (Q8IY84 whole entry): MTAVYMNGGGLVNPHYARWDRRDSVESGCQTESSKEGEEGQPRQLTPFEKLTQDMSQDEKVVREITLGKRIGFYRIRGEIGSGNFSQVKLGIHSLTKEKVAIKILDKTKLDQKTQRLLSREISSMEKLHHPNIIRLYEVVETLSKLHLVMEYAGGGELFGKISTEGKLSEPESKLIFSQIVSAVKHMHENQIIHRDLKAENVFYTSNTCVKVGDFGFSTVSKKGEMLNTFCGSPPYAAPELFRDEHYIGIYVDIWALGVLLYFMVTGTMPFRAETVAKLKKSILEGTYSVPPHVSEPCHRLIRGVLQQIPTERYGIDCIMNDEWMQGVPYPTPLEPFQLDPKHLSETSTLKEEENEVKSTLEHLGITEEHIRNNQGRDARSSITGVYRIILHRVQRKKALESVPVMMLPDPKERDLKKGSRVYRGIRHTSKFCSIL

[10] = molecular target: Serine/threonine-protein kinase 25 (Homo sapiens) (UniProt O00506); experiment: Selectivity interaction (Kinase panel (Invitrogen)) EUB0000639a STK25; settings: at 200 nM
Chain of Serine/threonine-protein kinase 25 (Homo sapiens) (O00506 whole entry, looked up): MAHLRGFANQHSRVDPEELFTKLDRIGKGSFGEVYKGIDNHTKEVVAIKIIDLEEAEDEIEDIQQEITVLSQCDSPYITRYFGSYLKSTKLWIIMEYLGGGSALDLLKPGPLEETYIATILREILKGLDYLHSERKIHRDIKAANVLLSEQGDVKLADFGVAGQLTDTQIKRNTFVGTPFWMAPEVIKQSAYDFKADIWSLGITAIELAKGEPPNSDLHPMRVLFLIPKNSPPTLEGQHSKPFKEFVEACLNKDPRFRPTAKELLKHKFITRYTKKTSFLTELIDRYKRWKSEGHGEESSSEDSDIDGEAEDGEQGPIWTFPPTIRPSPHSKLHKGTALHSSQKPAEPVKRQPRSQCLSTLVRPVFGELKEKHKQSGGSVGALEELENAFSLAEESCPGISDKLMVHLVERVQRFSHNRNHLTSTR

## C=CC(=O)Nc1ccc(C(=O)Nc2[nH]nc3c2CN(C(=O)N[C@H](CN(C)C)c2ccccc2)C3(C)C)cc1
[1]; Selectivity number of off-targets 0.0, Selectivity number of targets 233.0, Source Knowledge https://www.sciencedirect.com/science/article/pii/S2451945619300674?via%3Dihub
  % of engagement: 8.4%
[1]
  % of engagement: -7.7%

## COCC(=O)NC/C=C/c1ccc2ncnc(Nc3ccc(Oc4ccc(C)nc4)c(C)c3)c2c1 [CP-724714]
[2]
  % of control: 89%

## C=CC(=O)Nc1cc(-n2c(=O)ccc3cnc4ccc(-c5ccc(NS(C)(=O)=O)cc5)cc4c32)ccc1C
[3]; at 1 µM
  % of control: 100%
[3]; at 10 µM
  % of control: 80%

## Cn1cc(-n2cnc3c(NCc4nc5cc(Cl)c(Cl)cc5[nH]4)nc(N4CCOCC4)nc32)cn1
[4]
  % of control: -1.87%

## Cc1cc([C@@H](C)Nc2ccccc2C(=O)O)c2nc(N3CCOCC3)cc(=O)n2c1 [AZD-6482]
[5]
  % of control: 100%

## COc1cc(Nc2nc(C)cc(-c3cnn4nc(OC)ccc34)n2)cc(C(F)(F)F)c1
[6]
  % of control: 81%

## CC(=O)Nc1cccc(-n2c(=O)n(C3CC3)c(=O)c3c(Nc4ccc(I)cc4F)n(C)c(=O)c(C)c32)c1
[7]
  % of control: 111%

## Cc1ccc(-c2ccc3c(ccc4sc5c(c43)NC[C@@H](C)NC5=O)n2)cn1
[8]
  IC50: 0.07 µM

## O[C@H]1CC[C@H](Nc2ncc3nc(Nc4c(F)cc(F)cc4F)n([C@H]4CCOC4)c3n2)CC1
[9]
  % of control: 100%

## CC[C@@H]1[C@H](F)C(=O)N[C@@H]1COc1nccc2cc(C(N)=O)c(OC)cc12 [ZIMLOVISERTIB]
[10]
  % of inhibition: 7.57%
